In general, IC50 refers to the midpoint of a concentration-inhibition curve. Usually inhibition stands for the drop in the measured response relative to a control, in per cent. What is called CC50 is the concentration at which the toxic effect on the cells reaches its halfway point. Read a high CC50 as better tolerance by the cells.

These results are taken from US10189863B2, “5,6-dihydro-4H-benzo[b]thieno-[2,3-d]azepine derivatives” (PULMOCIDE LIMITED, priority 2014, dated 2019).

Where two headings read alike, the source gives them in different places.

For data set [1], the system named is RSV A2 strain. The data set can be described thus: Assessment of RSV induced CPE in HEp2 cells (RSV A2 strain). The data set is classed as cell-based. The following applies: human respiratory syncytial virus; for IC50: HEp-2, 120 h; for inhibition at 0.01 µg/mL: Inhibition (%) at 0.01 μg/mL. The method, boiled down:
(§1)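 HEp2 cells were infected at MOI 1 with RSV A2 or RSV B Washington, with compound added at the same time (0.5% DMSO final). Incubation was 5 days for A2 and 6 days for B, then viability was read by resazurin fluorescence (545/590 nm) after 6 h. IC50, IC75 and IC90 came from concentration-response curves.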

For data set [2], the system named is RSV B Washington strain. The data set can be described thus: Assessment of RSV induced CPE in HEp2 cells (RSV B Washington strain). The data set is classed as cell-based. The following applies: human respiratory syncytial virus; for IC50: HEp-2, 144 h. The essentials: as §1
Data set [3] in a line: Cell viability: resazurin assay. The data set is classed as cell-based, human. To be noted: human, HEp2 cells. The essentials: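 Viability read-out: resazurin fluorescence (ex 545, em 590 nm) after 6 h, following 5-day compound incubation of HEp2 cells (37 °C, 5% CO2, 5% FBS, 0.5% DMSO final). Loss expressed as percentage of vehicle, negative if viability rose; CC50 derived from concentration-response curve where appropriate.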
A general note: The colour change of resazurin is a common sign of viable cells or microbes.

[4] abbreviates: HEp2 cells, 1 MOI, 5 days, read-out: RSV A2 CPE IC50.
Where [5] appears, read: HEp2 cells, 1 MOI, 6 days, read-out: RSV B CPE IC50.
[6] abbreviates: HEp-2, HEp2 cells, Inhibition (%) at 1 μg/mL, read-out: RSV B CPE % Inhibition.
Where [7] appears, read: HEp-2, HEp2 cells, Inhibition (%) at 0.1 μg/mL, read-out: RSV A2 CPE % Inhibition.

As to `COc1cnc(N2CC3(CCOCC3)C2)c(C(=O)Nc2ccc(C(=O)N3CCc4cc(C(=O)Nc5c(C)cccc5F)sc4-c4ccccc43)cc2)c1` [Example 71, N-(2-fluoro-6-methylphenyl)-6-(4-(5-methoxy-2-(7-oxa-2-azaspiro[3.5]nonan-2-yl)nicotinamido)benzoyl)-5,6-di-hydro-4H-benzo[b]thieno[2,3-d]azepine-2-carboxamide], the figures for the IC50 in data set [1] (setting [4]) and in data set [2] (setting [5]) were 0.61 nM and 15.5 nM, respectively. The inhibition at 0.01 µg/mL in data set [1] (HEp-2, HEp2 cells) was determined as 100%. This molecule also returned an inhibition at 0.1 µg/mL in data set [2] (HEp-2, HEp2 cells, Inhibition (%) at 0.1 μg/mL) of 100%. Moreover, in data set [3], the CC50 at 5 days is over 13700 nM.

In the case of `O=C(Nc1c(F)cccc1F)c1cc2c(s1)-c1ccccc1N(C(=O)c1ccc(NC(=O)c3cc4c(nc3N3CC5(CCOCC5)C3)CCC4)cc1F)CC2` [Example 79, 6-(4-(2-(7-oxa-2-azaspiro[3.5]nonan-2-yl)-6,7-dihydro-5H-cyclopenta[b]pyridine-3-carboxamido)-2-fluorobenzoyl)-N-(2,6-difluorophenyl)-5,6-dihydro-4H-benzo[b]thieno[2,3-d]azepine-2-carboxamide], the IC50 turned out to be 2.3 nM in data set [1] (setting [4]) and 1.8 nM in data set [2] (setting [5]). In data set [1] (HEp-2, HEp2 cells), this molecule showed an inhibition at 0.01 µg/mL of 92%. Moreover, the inhibition at 1 µg/mL in data set [2] (setting [6]) was 93%. Moreover, in data set [3], the CC50 at 5 days was over 13100 nM.

`Cc1cnc(N2CC3(CCOCC3)C2)c(C(=O)Nc2ccc(C(=O)N3CCc4cc(C(=O)Nc5c(O)cccc5F)sc4-c4ccccc43)cc2)c1` [Example 52, N-(2-fluoro-6-hydroxyphenyl)-6-(4-(5-methyl-2-(7-oxa-2-azaspiro[3.5]nonan-2-yl)nicotinamido)benzoyl)-5,6-dihydro-4H-benzo[b]thieno[2,3-d]azepine-2-carboxamide]: the values for the concentration for half-maximal inhibition (IC50) in data set [1] (setting [4]) and in data set [2] (setting [5]) were 0.067 nM and 3.3 nM, respectively. The inhibition at 0.1 µg/mL in data set [1] (setting [7]) came out at 96%. The inhibition at 1 µg/mL in data set [2] (setting [6]) is 100%. The molecule further had a CC50 at 5 days in data set [3] of over 13900 nM.

Regarding `Cc1cnc(N2CC3(CCOCC3)C2)c(C(=O)Nc2ccc(C(=O)N3CCc4cc(C(=O)Nc5c(F)cccc5OCCO)sc4-c4ccccc43)cc2)c1` [Example 54, N-(2-fluoro-6-(2-hydroxyethoxy)phenyl)-6-(4-(5-methyl-2-(7-oxa-2-azaspiro[3.5]nonan-2-yl)nicotinamido)benzoyl)-5,6-dihydro-4H-benzo[b]thieno[2,3-d]azepine-2-carboxamide], the IC50 in data set [1] (setting [4]) is 1.5 nM; in data set [2] (setting [5]), 89.8 nM. This molecule also came in with an inhibition at 0.01 µg/mL in data set [1] (HEp-2, HEp2 cells) of 100%. The inhibition at 1 µg/mL in data set [2] (setting [6]) amounted to 100%. The CC50 at 5 days in data set [3] was over 13100 nM.

In the case of `Cc1cccc(C#N)c1NC(=O)c1cc2c(s1)-c1ccccc1N(C(=O)c1ccc(NC(=O)c3cc4c(nc3N3CC5(CCOCC5)C3)CCC4)cc1F)CC2` [Example 77, 6-(4-(2-(7-oxa-2-azaspiro[3.5]nonan-2-yl)-6,7-dihydro-5H-cyclopenta[b]pyridine-3-carboxamido)-2-fluorobenzoyl)-N-(2-cyano-6-methylphenyl)-5,6-dihydro-4H-benzo[b]thieno [2,3-d]azepine-2-carboxamide], the IC50 in data set [1] (setting [4]) amounted to 4.9 nM; in data set [2] (setting [5]) it was 19.2 nM. Testing at 0.01 µg/mL in data set [1] (HEp-2, HEp2 cells) gave an inhibition of 94%. In data set [2] (setting [6]), the inhibition at 1 µg/mL came out at 92%. Further, the CC50 at 5 days in data set [3] was over 13000 nM.

`Cc1cc(C(=O)Nc2ccc(C(=O)N3CCc4cc(C(=O)Nc5c(F)cccc5Cl)sc4-c4ccccc43)cc2)c(N2CC3(CCOCC3)C2)nc1C` [Example 46, N-(2-chloro-6-fluorophenyl)-6-(4-(5,6-dimethyl-2-(7-oxa-2-azaspiro[3.5]nonan-2-yl)nicotinamido)benzoyl)-5,6-di-hydro-4H-benzo[b]thieno[2,3-d]azepine-2-carboxamide]: the IC50 was 0.069 nM in data set [1] (setting [4]) and 7 nM in data set [2] (setting [5]). Besides, the inhibition at 0.1 µg/mL in data set [1] (setting [7]) was 100%. For the same molecule, the inhibition at 1 µg/mL in data set [2] (setting [6]) amounted to 86%. Besides, the CC50 at 5 days in data set [3] was over 13300 nM.

As to `Cc1cnc(N2CCC3(CCOCC3)CC2)c(C(=O)Nc2ccc(C(=O)N3CCc4cc(C(=O)Nc5c(C)cccc5F)sc4-c4ccccc43)cc2)c1` [Example 95, N-(2-fluoro-6-methylphenyl)-6-(4-(5-methyl-2-(3-oxa-9-azaspiro[5.5]undecan-9-yl)nicotinamido)benzoyl)-5,6-di-hydro-4H-benzo[b]thieno[2,3-d]azepine-2-carboxamide], the IC50 was 2.4 nM in data set [1] (setting [4]) and over 1340 nM in data set [2] (setting [5]). Further, testing at 0.01 µg/mL in data set [1] (HEp-2, HEp2 cells) gave an inhibition of 100%. For the same molecule, in data set [2] (setting [6]), the inhibition at 1 µg/mL stood at 27%. Further, the cytotoxic concentration (CC50) at 5 days in data set [3] is over 13400 nM.

On to `Cc1cnc(N2CC3(COC3)C2)c(C(=O)Nc2ccc(C(=O)N3CCc4cc(C(=O)Nc5c(C)cccc5F)sc4-c4ccccc43)cc2)c1` [Example 90, N-(2-fluoro-6-methylphenyl)-6-(4-(5-methyl-2-(2-oxa-6-azaspiro[3.3]heptan-6-yl)nicotinamido)benzoyl)-5,6-dihydro-4H-benzo[b]thieno[2,3-d]azepine-2-carboxamide], for which the 50% inhibitory concentration (IC50) in data set [1] (setting [4]) was 1.8 nM; in data set [2] (setting [5]), 508 nM. Also, the inhibition at 0.01 µg/mL in data set [1] (HEp-2, HEp2 cells) was 100%. Also, the inhibition at 1 µg/mL in data set [2] (setting [6]) is 99%. In data set [3], the 50% cytotoxic concentration (CC50) at 5 days was over 14500 nM.

`C=C(C)c1cnc(N2CC3(CCOCC3)C2)c(C(=O)Nc2ccc(C(=O)N3CCc4cc(C(=O)Nc5c(F)cccc5F)sc4-c4ccccc43)cc2)c1` [Example 73, N-(2,6-difluorophenyl)-6-(4-(5-(prop-1-en-2-yl)-2-(7-oxa-2-azaspiro[3.5]nonan-2-yl)nicotinamido)benzoyl)-5,6-dihydro-4H-benzo[b]thieno[2,3-d]azepine-2-carboxamide]: the IC50 worked out at 2.6 nM in data set [1] (setting [4]) and 14.8 nM in data set [2] (setting [5]). For the same molecule, the inhibition at 0.01 µg/mL in data set [1] (HEp-2, HEp2 cells) was found to be 84%. The inhibition at 1 µg/mL in data set [2] (setting [6]) was 98%. The CC50 at 5 days in data set [3] is over 13400 nM.

With `Cc1cnc(N2CCC3(CC2)COC3)c(C(=O)Nc2ccc(C(=O)N3CCc4cc(C(=O)Nc5c(C)cccc5F)sc4-c4ccccc43)cc2)c1` [Example 91, N-(2-fluoro-6-methylphenyl)-6-(4-(5-methyl-2-(2-oxa-7-azaspiro[3.5]nonan-7-yl)nicotinamido)benzoyl)-5,6-dihydro-4H-benzo[b]thieno[2,3-d]azepine-2-carboxamide], the IC50 stood at 1.3 nM in data set [1] (setting [4]) and 393 nM in data set [2] (setting [5]). Moreover, the inhibition at 0.01 µg/mL in data set [1] (HEp-2, HEp2 cells) was 100%. Further, the inhibition at 1 µg/mL in data set [2] (setting [6]) was 100%. In data set [3], this molecule came in with a CC50 at 5 days of over 14000 nM.

Turning to `Cc1cnc(N2CC3(CCOCC3)C2)c(C(=O)Nc2ccc(C(=O)N3CCc4cc(C(=O)Nc5c(F)cccc5C#N)sc4-c4ccccc43)cc2)c1` [Example 51, N-(2-cyano-6-fluorophenyl)-6-(4-(5-methyl-2-(7-oxa-2-azaspiro[3.5]nonan-2-yl)nicotinamido)benzoyl)-5,6-dihydro-4H-benzo[b]thieno[2,3-d]azepine-2-carboxamide], the values for the IC50 in data set [1] (setting [4]) and in data set [2] (setting [5]) were 1.1 nM and 10.1 nM, respectively. The inhibition at 0.1 µg/mL in data set [1] (setting [7]) was 98%. In data set [2] (setting [6]), the inhibition at 1 µg/mL came to 99%. For the same molecule, the CC50 at 5 days in data set [3] is over 13800 nM.

For the molecule `O=C(Nc1ccccc1F)c1cc2c(s1)-c1ccccc1N(C(=O)c1ccc(NC(=O)c3cc4ccccc4nc3N3CC4(CCOCC4)C3)cc1)CC2` [Example 84, 6-(4-(2-(7-oxa-2-azaspiro[3.5]nonan-2-yl)quinoline-3-carboxamido)benzoyl)-N-(2-fluorophenyl)-5,6-dihydro-4H-benzo[b]thieno[2,3-d]azepine-2-carboxamide], the IC50 in data set [1] (setting [4]) was determined as 0.13 nM; in data set [2] (setting [5]), 11 nM. In addition, the inhibition at 0.1 µg/mL in data set [1] (setting [7]) worked out at 97%. Moreover, the inhibition at 1 µg/mL in data set [2] (setting [6]) worked out at 68%. The CC50 at 5 days in data set [3] is over 13600 nM.

On to `N#Cc1ccccc1NC(=O)c1cc2c(s1)-c1ccccc1N(C(=O)c1ccc(NC(=O)c3cccnc3N3CC4(CCOCC4)C3)cc1)CC2` [Example 2, 6-(4-(2-(7-oxa-2-azaspiro[3.5]nonan-2-yl)nicotinamido)benzoyl)-N-(2-cyanophenyl)-5,6-dihydro-4H-benzo[b]thieno[2,3-d]azepine-2-carboxamide], for which the IC50 in data set [1] (read-out: RSV A2 CPE IC50 (nM)) was 0.16 nM; in data set [2] (read-out: RSV B CPE IC50 (nM)) it was 314 nM. Also, the inhibition at 0.1 µg/mL in data set [1] (HEp-2, read-out: RSV A2 CPE % Inhibition) worked out at 91%. In addition, in data set [2] (HEp-2, read-out: RSV B CPE % Inhibition), the inhibition at 1 µg/mL is 69%. The same molecule had a CC50 at 5 days in data set [3] of over 14400 nM.

With `O=C(Nc1ccccc1F)c1cc2c(s1)-c1ccccc1N(C(=O)c1ccc(NC(=O)c3cccnc3N3CC4(CCOCC4)C3)cc1F)CC2` [Example 29, 6-(4-(2-(7-oxa-2-azaspiro[3.5]nonan-2-yl)nicotinamido)-2-fluorobenzoyl)-N-(2-fluorophenyl)-5,6-dihydro-4H-benzo[b]thieno[2,3-d]azepine-2-carboxamide], the IC50 in data set [1] (setting [4]) came out at 0.13 nM; in data set [2] (setting [5]), 27.9 nM. Further, the inhibition at 0.1 µg/mL in data set [1] (setting [7]) was 97%. Also, the inhibition at 1 µg/mL in data set [2] (setting [6]) amounted to 73%. Also, in data set [3], the CC50 at 5 days is over 14200 nM.
